Key:
Assay in all cases: Test B pre-/postemergence plant response
Type in all cases: in vivo
[1] = test system: nightshade (eastern black nightshade, Solanum ptycanthum); conditions: Preemergence; for Nightshade plant response rating: 125 g ai/ha
Method in brief: (§1)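 Visually scored on a 0 to 100 scale after 13 to 15 days in greenhouse versus controls. Treatments were preemergence on seeded loam/sand soil and postemergence on 1- to 4-leaf plants.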

[2] = test system: sunflower (common oilseed sunflower, Helianthus annuus); conditions: Preemergence; for Sunflower plant response rating: 125 g ai/ha
Method in brief: as §1

[3] = test system: galium (catchweed bedstraw, Galium aparine); conditions: Preemergence; for Galium plant response rating: 125 g ai/ha
Method in brief: as §1

[4] = test system: goosegrass (Eleusine indica); conditions: Preemergence, 62 g ai/ha; scale 0 to 100 (0 no effect, 100 complete control)
[5] = 31 g ai/ha, scale 0 to 100 (0 no effect, 100 complete control)
[6] = 62 g ai/ha, scale 0 to 100 (0 no effect, 100 complete control)

Compound | Plant response rating, Nightshade ([1]; 250 g ai/ha, 0 to 100 scale) | Plant response rating, Nightshade [1, 5] | Plant response rating, Nightshade [1, 6] | Nightshade plant response rating ([1]; 0 to 100 scale) | Plant response rating, Sunflower ([2]; 250 g ai/ha, 0 to 100 scale) | Plant response rating, Sunflower [2, 5] | Plant response rating, Sunflower [2, 6] | Sunflower plant response rating ([2]; 0 to 100 scale) | Plant response rating, Galium ([3]; 250 g ai/ha, 0 to 100 scale) | Plant response rating, Galium [3, 5] | Plant response rating, Galium [3, 6] | Galium plant response rating ([3]; 0 to 100 scale) | Plant response rating, Goosegrass [4]
3-cyclohexyl-5-[(2-hydroxy-6-oxo-1-cyclohexen-1-yl)carbonyl]-2-phenyl-4(3H)-pyrimidinone [Compound 128] | 100 | 85 | 100 | 100 | 98 | 75 | 85 | 95 | 75 | 5 | 50 | 50 | 95
Cc1ccccc1-n1c(-c2ccccc2)ncc(C(=O)C2=C(O)CCCC2=O)c1=O [Compound 12] | 100 | 100 | 100 | 100 | 100 | 95 | 98 | 98 | 95 | 0 | 50 | 90 | 95
O=C1CCCC(O)=C1C(=O)c1cnc(-c2ccccc2)n(-c2ccccc2F)c1=O [Compound 26] | 100 | 85 | 100 | 100 | 95 | 60 | 90 | 90 | 98 | 0 | 50 | 90 | 80
Cc1cc(C)cc(-n2c(-c3ccccc3)ncc(C(=O)C3=C(O)CCCC3=O)c2=O)c1 [Compound 33] | 100 | 80 | 100 | 100 | 90 | 65 | 75 | 75 | 90 | 0 | 10 | 50 | 85
Cc1ccccc1-n1c(-c2cccc(Cl)c2)ncc(C(=O)C2=C(O)CCCC2=O)c1=O [Compound 36] | 98 | 80 | 95 | 95 | 85 | 0 |  | 55 | 95 | 10 | 80 | 80 | 90
O=C1CCCC(O)=C1C(=O)c1cnc(-c2ccccc2)n(-c2cccc(Br)c2)c1=O [Compound 38] | 100 | 90 | 95 | 98 | 75 | 0 |  | 25 | 85 | 0 | 40 | 85 | 100
Cc1c(Cl)cccc1-n1c(-c2ccccc2)ncc(C(=O)C2=C(O)CCCC2=O)c1=O [Compound 40] | 100 | 65 | 98 | 98 | 80 | 20 |  | 75 | 90 | 50 | 70 | 85 | 98
CCCCc1ncc(C(=O)C2=C(O)CCCC2=O)c(=O)n1-c1ccccc1 [Compound 42] | 100 | 100 | 100 | 100 | 75 | 0 |  | 55 | 50 | 0 | 0 | 10 | 95
Cc1ccc(F)cc1-n1c(-c2ccccc2)ncc(C(=O)C2=C(O)CCCC2=O)c1=O [Compound 44] | 100 | 95 | 98 | 100 | 80 | 10 |  | 75 | 98 | 0 | 65 | 65 | 98
Cc1cccc(Cl)c1-n1c(-c2ccccc2)ncc(C(=O)C2=C(O)CCCC2=O)c1=O [Compound 46] | 98 | 95 | 95 | 98 | 60 | 0 |  | 0 | 70 | 0 | 0 | 0 | 95

— patent US8952024B2, “Herbicidal pyrimidone derivatives” (E I du Pont de Nemours and Company, priority 2009, dated 2015)
